Assay results from US20070134261A1, “Effectors of innate immunity” (priority 2001, published 2007).
Values after ≈ are worked out from the molar mass of the structure shown. Like-named read-outs stand apart in the source and are kept apart here. Residues, ends and D or L forms follow the SMILES beside them. No end group written: not given here.

How the values were obtained:
[1] = system: human PBMC; test: TLR agonist / cytokine induced cytokine secretion by PBMC (ELISA, multiplex bead immunoassay); assay type: cell-based
Description: All assays were performed in triplicate.

[2] = system: HBE cells; test: WST-1 assay (cell viability); assay type: cell-based, human
Description: (§1) The potential toxicity of the peptides was measured in two ways. First, the Cytotoxicity Detection Kit (Roche) (Lactate dehydrogenase-LDH) Assay was used. It is a colorimetric assay for the quantification of cell death and cell lysis, based on the measurement of LDH activity released from the cytosol of damaged cells into the supernatant. LDH is a stable cytoplasmic enzyme present in all cells and it is released into the cell culture supernatant upon damage of the plasma membrane. An increase in the amount of dead or plasma membrane-damaged cells results in an increase of the LDH enzyme activity in the culture supernatant as measured with an ELISA plate reader, OD490 nm (the amount of color formed in the assay is proportional to the number of lysed cells). In this assay, human bronchial epithelial cells (I6HBEo14, HBE) cells were incubated with 100 μg of peptide for 24 hours, the supernatant removed and tested for LDH. The other assay used to measure toxicity of the cationic peptides was the WST-1 assay (Roche). This assay is a colorimetric assay for the quantification of cell proliferation and cell viability, based on the cleavage of the tetrazolium salt WST-1 by mitochondrial dehydrogenases in viable cells (a non-radioactive alternative to the [^3H]-thymidine incorporation assay). In this assay, HBE cells were incubated with 100 μg of peptide for 24 hours, and then 10 μl/well Cell Proliferation Reagent WST-1 was added. The cells are incubated with the reagent and the plate is then measured with an ELISA plate reader, OD490 nm.

[3] = system: A549 epithelial cells; test: Human Operon arrays (PRHU04-S1) of A549 cells treated with peptide alone (Tables 31-37, 53); conditions: peptide 50 μg/ml, 4 h, A549 cells
[4] = assay type: cell-based
[5] = system: human bronchial epithelial cells (HBE); test: LDH release assay (Cytotoxicity Detection Kit); assay type: cell-based; conditions: 100 μg/ml, 24 hours; no peptide control 1.0 ± 0.05
Description: as §1

[6] = system: RAW 264.7 mouse macrophage cells; assay type: cell-based; conditions: Peptide 20 μg/ml; 100 ng/ml E. coli 0111:B4 LPS, 6 h
[7] = system: A549 human epithelial cells; test: Induction of chemokines (IL-8, MCP-1) in A549 cells (ELISA); assay type: cell-based; conditions: peptide 10 ug/ml, 24 hr
Description: The murine macrophage cell line RAW 264.7, THP-1 cells (human monocytes), a human epithelial cell line (A549), human bronchial epithelial cells (16HBEo14), and whole human blood were used. HBE cells were grown in MEM with Earle's. THP-1 cells were grown and maintained in RPMI 1640 medium. The RAW and A549 cell lines were maintained in DMEM supplemented with 10% fetal calf serum. […] DMEM was aspirated from cells grown overnight and replaced with fresh medium. After incubation of the cells with peptide, the release of chemokines into the culture supernatant was determined by ELISA (R&D Systems, Minneapolis, Minn.).

[8] = Escherichia coli, overnight, 96-well plate
[9] = Staphylococcus aureus, overnight, 96-well plate

TNF-α
IL-1β, Ave pg/ml ([1]; 4 hr, TNF-α −SEQ ID NO: 1): 74 pg/mL
IL-8, Ave pg/ml ([1]; 4 hr, TNF-α −SEQ ID NO: 1): 54 pg/mL
IL-1β, Ave pg/ml ([1]; 24 hr, TNF-α −SEQ ID NO: 1): 94 pg/mL
IL-6, Ave pg/ml ([1]; 24 hr, TNF-α −SEQ ID NO: 1): 9 pg/mL
IL-8, Ave pg/ml ([1]; 24 hr, TNF-α −SEQ ID NO: 1): 4410 pg/mL

RPAWKYWWPWPWPRRK [SEQ ID NO: 22]
OD490 nm (WST-1 cell viability) [2]: 1.33 ± 0.07 OD490 nm
ID#:ctrl intensity ratio, X65962 cytochrome P-450 [3]: 5.1
MIC, C. rhod. ([4]; 24 h): 4 µg/mL
MIC, E. coli ([4]; 24 h): 8 µg/mL
MIC, EHEC ([4]; 24 h): 4 µg/mL
MIC, P. aerug. ([4]; 24 h): 24 µg/mL
MIC, S. aureus ([4]; 24 h): 12 µg/mL
MIC, S. typhim. ([4]; 24 h): 8 µg/mL
LDH Release (OD490 nm) [5]: 1.29 ± 0.12 OD490 nm

KWKSYAHTIMSPVRLVFHTALKPISS [SEQ ID NO: 54]
Inhibition of TNF-α [6]: 64 ± 0.73%
MIC, C. rhod. ([4]; Citobacter rhodensis, overnight, 96-well plate): 16 µg/mL
MIC, EHEC ([4]; Enterohaemorrhagic E. coli, overnight, 96-well plate): 32 µg/mL
MIC, E. coli [4, 8]: 64 µg/mL
MIC, P. aerug. ([4]; Pseudomonas aeruginosa, overnight, 96-well plate): 16 µg/mL
MIC, S. typhim. ([4]; Salmonella enteritidis ssp. typhimurium, overnight, 96-well plate): 64 µg/mL
MIC, S. aureus [4, 9]: >
IL-8 [7]: 0.133 ng/mL

KWKHALMKAHMLWHMIFHTALKPISS [SEQ ID NO: 52]
MIC, C. rhod. ([4]; 24 h): 2 µg/mL
MIC, E. coli ([4]; 24 h): 8 µg/mL
MIC, EHEC ([4]; 24 h): 2 µg/mL
MIC, P. aerug. ([4]; 24 h): 32 µg/mL
MIC, S. typhim. ([4]; 24 h): 8 µg/mL
MIC, S. aureus [4, 9]: >
IL-8 [7]: 0.207 ng/mL

PAM3
IL-1β, Ave pg/ml ([1]; 4 hr, PAM3 −SEQ ID NO: 1): 34 pg/mL
IL-6, Ave pg/ml ([1]; 4 hr, PAM3 −SEQ ID NO: 1): 435 pg/mL
IL-8, Ave pg/ml ([1]; 4 hr, PAM3 −SEQ ID NO: 1): 738 pg/mL
TNF-α, Ave pg/ml ([1]; 4 hr, PAM3 −SEQ ID NO: 1): 830 pg/mL
IL-1β, Ave pg/ml ([1]; 24 hr, PAM3 −SEQ ID NO: 1): 512 pg/mL
IL-6, Ave pg/ml ([1]; 24 hr, PAM3 −SEQ ID NO: 1): 7734 pg/mL
IL-8, Ave pg/ml ([1]; 24 hr, PAM3 −SEQ ID NO: 1): 7620 pg/mL
TNF-α, Ave pg/ml ([1]; 24 hr, PAM3 −SEQ ID NO: 1): 2334 pg/mL

CC[C@H](C)[C@H](NC(=O)CNC(=O)[C@H](CCCNC(=N)N)NC(=O)[C@H](CCSC)NC(=O)[C@H](C)NC(=O)[C@@H](NC(=O)[C@H](CCCNC(=N)N)NC(=O)[C@H](CCCCN)NC(=O)[C@@H](NC(=O)[C@H](CS)NC(=O)[C@@H](NC(=O)[C@@H](N)CCCNC(=N)N)[C@@H](C)O)C(C)C)C(C)C)C(=O)N[C@H](C(=O)N[C@@H](CCCNC(=N)N)C(=O)N[C@@H](CCCCN)C(=O)N[C@@H](CCCNC(=N)N)C(=O)N[C@@H](CS)C(=O)N[C@@H](CCCNC(=N)N)C(=O)O)[C@@H](C)CC [SEQ ID NO: 33] (H-RTCVKRVAMRGIIRKRCR-OH; N-terminus and C-terminus assumed)
OD490 nm (WST-1 cell viability) [2]: 1.75 ± 0.21 OD490 nm
Inhibition of TNF-α [6]: 62.1 ± 0.08%
MIC, C. rhod. ([4]; 24 h): 64 µg/mL (≈ 29.1 µM)
MIC, E. coli ([4]; 24 h): 16 µg/mL (≈ 7.26 µM)
MIC, EHEC ([4]; 24 h): 8 µg/mL (≈ 3.63 µM)
MIC, S. aureus ([4]; 24 h): 32 µg/mL (≈ 14.5 µM)
MIC, S. typhim. ([4]; 24 h): 16 µg/mL (≈ 7.26 µM)
IL-8 [7]: 0.328 ng/mL
LDH Release (OD490 nm) [5]: 1.03 ± 0.05 OD490 nm

ELPLKRGRVPVE [SEQ ID NO: 16]
OD490 nm (WST-1 cell viability) [2]: 1.39 ± 0.26 OD490 nm
ID#:ctrl intensity ratio, M14565 cytochrome P450 [3]: 10.1
LDH Release (OD490 nm) [5]: 0.91 ± 0.04 OD490 nm

RREAIRRVAMRGRDMKRMRR [SEQ ID NO: 31]
OD490 nm (WST-1 cell viability) [2]: 1.84 ± 0.06 OD490 nm
MIC, EHEC ([4]; 24 h): 64 µg/mL
MIC, P. aerug. ([4]; 24 h): 128 µg/mL
LDH Release (OD490 nm) [5]: 0.98 ± 0.03 OD490 nm

KWKRGAHRFMKFLSTIFHTALKPISS [SEQ ID NO: 49]
Inhibition of TNF-α [6]: 86.9 ± 0.69%
MIC, C. rhod. ([4]; 24 h): 4 µg/mL
MIC, E. coli ([4]; 24 h): 4 µg/mL
MIC, EHEC ([4]; 24 h): 4 µg/mL
MIC, P. aerug. ([4]; 24 h): 16 µg/mL
MIC, S. typhim. ([4]; 24 h): 8 µg/mL
MIC, S. aureus [4, 9]: >
IL-8 [7]: 0.301 ng/mL

KKSPIAPAIPWSR (Cationic peptide) [SEQ ID NO: 8, Formula A cationic peptide]
Inhibition of TNF-α [6]: 39.3 ± 1.9%
MIC, E. coli [4, 8]: >
MIC, S. aureus [4, 9]: >
